# Source: patent publication US20210363496A1, “METHOD FOR OBTAINING ARTIFICIAL NEUROMUSCULAR JUNCTION FROM PLURIPOTENT STEM CELLS” (KYOTO UNIVERSITY, priority 2017, published 2021)
# “Also recorded” adds a separate entry of the source.
# What was measured:
# Format in all cases: cell-based, human
# [1] = test system: in vitro hNMJ culture (myotubes); assay: Calcium imaging of in vitro hNMJ; conditions: day 20 of NMJ differentiation, Ca imaging at five ROIs
# Protocol: MyoD-201B7 cells were seeded at a density of 2.2×10^4 cells/well and differentiated into NMJs in a Costar 96-well black-wall/clear-bottom plate. On day 20, the growth medium was removed, and 100 μL Fluo-8 recording medium was added to the cells at 37° C. for 1 hour. The cells were washed twice with PBS and then imaged on In Cell Analyzer 2000. The fluorescence intensity was expressed as the F/F0 ratio.
# MyoD-201B7 cells were seeded onto a Matrigel-coated, 96-well black-wall/clear-bottom plate at a density of 2.2×10^4 cells/well. Half of the medium in each well was exchanged every day until the cultures started contracting. The growth medium was removed, and cells were loaded with 100 μL Fluo-8 recording medium at 37° C. for 1 hour. The cells were washed twice with PBS and then the differentiation medium was added to the wells. Ca oscillations were monitored with the FDSS microplate reader, data points were collected at 1-minute intervals, and the data points were analyzed using FDSS software for frequency and amplitude quantification.
# [2] = test system: in vitro hNMJ culture (myotubes); assay: Motion vector analysis of myotube contraction in in vitro hNMJ; conditions: day 20 of NMJ differentiation
# Protocol: (§1) MyoD-201B7 strain was subjected to myogenic differentiation according to the procedure described in Tanaka et al., PLOS ONE 2013. Specifically, MyoD-201B7 cells were seeded on a Matrigel-coated plate, and myogenic differentiation was induced by adding 1 μg/mL of doxycycline to myogenic differentiation medium (10% KSR+αMEM). Ten days after the addition of doxycycline, neural differentiation was induced by changing the medium to Neurobasal medium supplemented with neurotrophic factors (BDNF, GDNF, and NT3; 10 ng/ml each, R&D Systems). The medium was then replaced every 3 to 4 days to continue culturing.
# Using α7s ILCE-7S (Sony Corporation), phase-contrast images using a red-filtered optical source and fluorescence (Fluo8, green) were continuously captured at 15 fps. Using the SI8000 Cell Motion Imaging System (Sony Corporation), which provides motion vector analysis based on the block matching method, motion quantification with the red-separated images in regions of interest (ROIs) and brightness analysis with the green-separated images were performed.
# Both moving image capture and motion analysis were performed at 38 fps using the SI8000 Cell Motion Imaging System (Sony Corporation).
# in vitro hNMJ culture = assay: Contribution of agrin to the in vitro NMJ system (NMJ area, TEM); conditions: long-term culture
# Protocol: as §1
# NMJ cultures were pre-fixed in 2% paraformaldehyde and 2% glutaraldehyde in 0.1 M phosphate buffer (pH 7.4) at 4° C. overnight. Post-fixation was done in 1% osmium tetroxide solution for 1 hour at room temperature. The samples were dehydrated in ethanol (30%, 50%, 70%, 90%, 95%, and 100%) and embedded in Epon resin. Ultrathin sections (80 nm) were cut and stained with uranyl acetate and alkaline lead citrate. The specimens were examined with a transmission electron microscope (H-7650, Hitachi, Ltd.).
# Image analysis and quantification were performed by MetaMorph software (Molecular Devices, LLC. USA).
# [3] = test system: hNMJ culture expressing ChR2-EYFP; assay: Motion analysis of in vitro hNMJ culture by photoactivation (ChR2-EYFP); conditions: day 100 of NMJ differentiation
# Protocol: The plasmid deposited at Addgene by Karl Deisseroth was purchased and used as a plasmid containing a photoactivation domain (pLenti-Synapsin-hChR2 (H134R)-EYFP-WPRE, Addgene plasmid number 20945). The lentivirus transduction system (ViraPower hiperform lentivirus expression system, Invitrogen) was used to transduce the target gene into neural cells. NMJ cultures were treated with virus-containing medium at 37° C. for 48 hours with 5% CO2. After virus infection, the medium was removed and the Neurobasal medium was added for target gene expression. The medium was changed every 3 to 4 days. EYFP expression was examined by confocal microscopy with proper optical settings. Photoactivation was performed with at 488-nm laser wavelength. In addition to EYFP signals, bright-field images were captured simultaneously for muscle movement analysis.
molecule,measurement,setting,value
"[Ca+2] [Ca^2+, calcium]",excitation of myotubes (transient Ca2+ elevation),[1],enhanced
O=C1CN(/N=C/c2ccc(-c3ccc([N+](=O)[O-])cc3)o2)C(O)=N1 [dantrolene],spontaneous synchronized contraction-like movement of myotubes,[2],inhibited
agrin,area of the NMJ (ratio of NMJ region),in vitro hNMJ culture,increased
same,morphology of myotubes and axon terminals by TEM,in vitro hNMJ culture,Myotube was well confined at fold of junction that bounds axon terminal
curare,excitation of myotubes (transient Ca2+ elevation),[1],reduced; also recorded: stopped
same,muscle contraction triggered by blue light (488 nm),[3],inhibited
